# Data reported in patent US12377104B1, “Methods for treating a fatty liver disease” (Madrigal Pharmaceuticals, Inc., priority 2024, dated 2025).
# Values joined by “and” are separate entries in the source; they are usually repeats but may differ in a detail not shown here. Identical values can stand only once.
# Tested on: adults with biopsy-confirmed NASH
# Assay: MAESTRO-NASH: lipids, lipoproteins and lipid particles
# Assay type: in vivo, human
# Conditions: 100 mg; for ApoB, Least Squares Mean % CFB / ApoB, Least Squares Mean % CFB Difference from PBO / LDL-C, Least Squares Mean % CFB / LDL-C, Least Squares Mean % CFB Difference from PBO: baseline LDL-C >100 mg/dL; for Lp(a), LS mean % CFB / Lp(a), LS mean % CFB difference from PBO: baseline Lp(a) >10 nmol/L; for Triglycerides, LS mean % CFB / Triglycerides, LS mean % CFB difference from PBO: baseline triglycerides >150 mg/dL
# Protocol: Within the study, we provided analyses based on an analysis of covariance (ANCOVA) model after having performed single imputation for LDL-C as described in the statistical analysis plan (SAP). The ANCOVA model estimated least-squares means using treatment and baseline LDL-C as covariate.
# To this end, the Week 24 LDL-C assessment and assessments at any visit in which LDL-C is measured (Weeks 4, 12, 16, 20, 24, 28, 32, 36, 40, 44, 48, and 52) that has been impacted by kit shortage at the prior visit (unavailability of […] (IP) during the 4 weeks preceding the visit due to the COVID-19 pandemic as indicated on the electronic case report form (eCRF)), were considered missing and were imputed from an unaffected assessment at surrounding visits or using data from subjects unaffected by this intercurrent event as described in Section 11.2 of the SAP. In summary, single imputation utilizing adjacent and valid […] measurements were imputed.
# For missing lipid data that are still missing after the single imputation approach described, those missing lipid data were imputed using the non-missing lipid values (including the singly imputed data) based on missing at random (MAR)-based (MI). When applying the MAR-based […], data were imputed separately by randomized treatment group and baseline stratification factors.
smiles,measurement,setting,value
"CC(C)c1cc(Oc2c(Cl)cc(-n3nc(C#N)c(=O)[nH]c3=O)cc2Cl)n[nH]c1=O [Resmetirom, 2-(3,5-dichloro-4-((5-isopropyl-6-oxo-1,6-dihydropyridazin-3-yl)oxy)phenyl)-3,5-dioxo-2,3,4,5-tetrahydro-1,2,4-triazine-6-carbonitrile]","Apolipoprotein B level, difference from placebo",wk 24,−20.2 percentage points
same,"Apolipoprotein B level, least-squares mean percent change from baseline",wk 24,−19.8 ± 1.3%
same,"LDL cholesterol level, difference from placebo",wk 24,−16.4 percentage points
same,"LDL cholesterol level, least-squares mean percent change from baseline",wk 24,−16.3% and −16.3 ± 1.7%
same,"Lipoprotein(a) level, difference from placebo",wk 24,−35.1 percentage points
same,"Triglyceride level, difference from placebo",wk 24,−19.1 percentage points
same,"Lipoprotein(a) level, least-squares mean percent change from baseline","wk 24, baseline lipoprotein(a) >10 nmol per liter",−35.9 ± 4.0%
same,"Triglyceride level, least-squares mean percent change from baseline","wk 24, baseline triglyceride >150 mg per deciliter",−21.7 ± 4.3%
same,"ApoB, LS mean % CFB",Week 24,-19.8%
same,"ApoB, LS mean % CFB difference from PBO",Week 24,−20.2%
same,"ApoCIII, Least Squares Mean % CFB",Week 24,−14.1%
same,"ApoCIII, Least Squares Mean % CFB Difference from PBO",Week 24,−22.2%
same,"HDL-C, Least Squares Mean % CFB",Week 24,2.9%
same,"HDL-C, Least Squares Mean % CFB Difference from PBO",Week 24,1.2%
same,"LDL-C, LS mean % CFB",Week 24,−16.3%
same,"LDL-C, LS mean % CFB difference from PBO",Week 24,−16.4%
same,"Non-HDL-C, Least Squares Mean % CFB",Week 24,−17.7%
same,"Non-HDL-C, Least Squares Mean % CFB Difference from PBO",Week 24,−17.9%
same,"ApoB, Least Squares Mean % CFB",Week 24,−22.1%
same,"ApoB, Least Squares Mean % CFB Difference from PBO",Week 24,−18.4%
same,"LDL-C, Least Squares Mean % CFB",Week 24,−20.6%
same,"LDL-C, Least Squares Mean % CFB Difference from PBO",Week 24,−14.7%
same,"ApoCIII, Least Squares Mean % CFB",Week 52,−17.1%
same,"ApoCIII, Least Squares Mean % CFB Difference from PBO",Week 52,−26.9%
same,"HDL particle size, Least Squares Mean % CFB",Week 52,0.40%
same,"HDL particle size, Least Squares Mean % CFB Difference from PBO",Week 52,0.10%
same,"HDL particles, Least Squares Mean % CFB",Week 52,2.3%
same,"HDL particles, Least Squares Mean % CFB Difference from PBO",Week 52,0.69%
same,"HDL-C, Least Squares Mean % CFB",Week 52,4.6%
same,"HDL-C, Least Squares Mean % CFB Difference from PBO",Week 52,2.0%
same,"LDL particle size, Least Squares Mean % CFB",Week 52,−0.35%
same,"LDL particle size, Least Squares Mean % CFB Difference from PBO",Week 52,−0.39%
same,"LDL particles, Least Squares Mean % CFB",Week 52,−20.0%
same,"LDL particles, Least Squares Mean % CFB Difference from PBO",Week 52,−19.4%
same,"Large HDL particles, Least Squares Mean % CFB",Week 52,4.5%
same,"Large HDL particles, Least Squares Mean % CFB Difference from PBO",Week 52,−7.7%
same,"Large LDL particles, Least Squares Mean % CFB",Week 52,55.6%
same,"Large LDL particles, Least Squares Mean % CFB Difference from PBO",Week 52,−30.8%
same,"Large VLDL and chylomicron particles, Least Squares Mean % CFB",Week 52,−9.1%
same,"Large VLDL and chylomicron particles, Least Squares Mean % CFB Difference from PBO",Week 52,−20.2%
same,"Medium HDL particles, Least Squares Mean % CFB",Week 52,130.2%
same,"Medium HDL particles, Least Squares Mean % CFB Difference from PBO",Week 52,65.2%
same,"Medium VLDL particles, Least Squares Mean % CFB",Week 52,−27.4%
same,"Medium VLDL particles, Least Squares Mean % CFB Difference from PBO",Week 52,−143.2%
same,"Non-HDL-C, Least Squares Mean % CFB",Week 52,−22.1%
same,"Non-HDL-C, Least Squares Mean % CFB Difference from PBO",Week 52,−21.7%
same,"Small LDL particles, Least Squares Mean % CFB",Week 52,6.6%
same,"Small LDL particles, Least Squares Mean % CFB Difference from PBO",Week 52,−15.0%
same,"Small VLDL particles, Least Squares Mean % CFB",Week 52,26.3%
same,"Small VLDL particles, Least Squares Mean % CFB Difference from PBO",Week 52,−15.3%
same,"VLDL and chylomicron particles, Least Squares Mean % CFB",Week 52,−20.2%
same,"VLDL and chylomicron particles, Least Squares Mean % CFB Difference from PBO",Week 52,−28.4%
same,"VLDL and chylomicron triglycerides, Least Squares Mean % CFB",Week 52,−17.9%
same,"VLDL and chylomicron triglycerides, Least Squares Mean % CFB Difference from PBO",Week 52,−22.8%
same,"VLDL particle size, Least Squares Mean % CFB",Week 52,3.4%
same,"VLDL particle size, Least Squares Mean % CFB Difference from PBO",Week 52,1.4%
same,"ApoB, Least Squares Mean % CFB",Week 52,−26.6%
same,"ApoB, Least Squares Mean % CFB Difference from PBO",Week 52,−20.1%
same,"LDL-C, Least Squares Mean % CFB",Week 52,−27.1%
same,"LDL-C, Least Squares Mean % CFB Difference from PBO",Week 52,−17.5%
same,"Lp(a), LS mean % CFB",week 24,−35.9%
same,"Lp(a), LS mean % CFB difference from PBO",week 24,35.1%
same,"Triglycerides, LS mean % CFB",week 24,−21.7%
same,"Triglycerides, LS mean % CFB difference from PBO",week 24,−19.1%
same,"ApoB, LS mean % CFB",week 52,-22.3%
same,"ApoB, LS mean % CFB difference from PBO",week 52,−22.9%
same,"LDL-C, LS mean % CFB",week 52,−19.5%
same,"LDL-C, LS mean % CFB difference from PBO",week 52,−19.0%
same,"Lp(a), LS mean % CFB",week 52,−37.5%
same,"Lp(a), LS mean % CFB difference from PBO",week 52,−32.4%
same,"Triglycerides, LS mean % CFB",week 52,−28.4%
same,"Triglycerides, LS mean % CFB difference from PBO",week 52,−24.9%
